Laboratory results taken from patent US20210196724A1, “BIARYL COMPOSITIONS AND METHODS FOR MODULATING A KINASE CASCADE” (Athenex, Inc., priority 2016, published 2021).
Where two headings read alike, the source gives them in different places.

Assays:
JEG-3 cells = assay: CellTiter-Glo cell viability, JEG-3; assay type: cell-based; settings: 72 h; for GI50: read-out: Absolute GI50; for IC50: read-out: Absolute IC50
Method: (§1) The cell viability of 50 cancer cell lines was studied after treatment with Compound 121. Inhibition concentration values at 50% (IC50) were determined using CellTiter-Glo luminescent cell viability assay after incubation with different compound concentrations. GI50 values were determined according to the examples described above. Each cell line was treated with Compound 121, a standard chemotherapy drug as a reference control, and culture medium as a vehicle control.
(§2) All cells were cultured in media supplemented with 10-15% FBS at 37° C. in the presence of 5% CO2 and at 95% humidity. The culture medium was purchased from GIBCO or Sigma, USA. Cisplatin was chosen as the reference control and purchased from Hospira Australia Pty Ltd. The cell lines studied are presented in Table 5.
(§3) Cells were harvested during a logarithmic growth period and cell number count was determined using Count-star. Cell concentrations were adjusted to 4.44×10^4 cells/mL with respective culture medium. 90 μL of cell suspensions were added to two 96-well plates (plates A and B) with a final cell density of 4×10^3 cells/well.
(§4) 10 μL of culture medium was added to each well of plate A for TO reading. The plate was allowed to equilibrate at room temperature for approximately 30 min. 50 μL of CellTiter-Glo was added to each well and the contents were mixed for 5 min on an orbital shaker to induce cell lysis. The plate was allowed to incubate at room temperature for 20 min to stabilize luminescent signal.
(§5) 10 μM Compound 121 in media was serially diluted 3.16-fold to achieve 9 dose levels. Similarly, 100 μM reference control in media was serially diluted 3.16-fold to prepare reference control solutions. 10 μL drug solution and 10 μL of reference control was dispensed into each well in plate B.
(§6) Test plate B was incubated for 72 h in a humidified incubator at 37° C. in the presence of 5% CO2 and then subjected to CTG assay. The plate was allowed to equilibrate at room temperature for about 30 min. 50 μL of CellTiter-Glo was added to each well and the contents were mixed for 5 min on an orbital shaker to induce cell lysis. The plate was allowed to incubate at room temperature for 20 min to stabilize luminescent signal.
(§7) IC50 and GI50 values for each of the 50 cell lines are presented in Table 6 and were calculated based on the dose-response curves depicted in FIGS. 1-50. The dose-response curves were fitted using nonlinear regression model with a sigmoidal dose response. The formula for calculating survival rate was calculated by the formula:
(§8) Survival rate (%)=(LumTest article−LumMedium control)/(LumNone treated−LumMedium control)×100.

Molt-4 cells = assay: CellTiter-Glo cell viability, Molt-4; assay type: cell-based; settings: 72 h; for GI50: read-out: Absolute GI50; for IC50: read-out: Absolute IC50
Method: as §1, §2, §3, §4, §5, §6, §7, §8

MDA-MB-231 cells = assay: CellTiter-Glo cell viability, MDA-MB-231; assay type: cell-based; settings: 72 h; for GI50: read-out: Absolute GI50
Method: as §1, §2, §3, §4, §5, §6, §7, §8

HeLa cells = assay: CellTiter-Glo cell viability, HeLa; assay type: cell-based; settings: 72 h; for GI50: read-out: Absolute GI50
Method: as §1, §2, §3, §4, §5, §6, §7, §8

AsPC-1 cells = assay: CellTiter-Glo cell viability, AsPC-1; assay type: cell-based; settings: for GI50: read-out: Absolute GI50; for IC50: read-out: Absolute IC50
Method: as §1, §2, §3, §4, §5, §6, §7, §8

KP4 cells = assay: CellTiter-Glo cell viability, KP4; assay type: cell-based; settings: for GI50: read-out: Absolute GI50; for IC50: read-out: Absolute IC50
Method: as §1, §2, §3, §4, §5, §6, §7, §8

MX-1 cells = assay: CellTiter-Glo cell viability, MX-1; assay type: cell-based; settings: for GI50: read-out: Absolute GI50; for IC50: read-out: Absolute IC50
Method: as §1, §2, §3, §4, §5, §6, §7, §8

KYSE-150 cells = assay: CellTiter-Glo cell viability, KYSE-150; assay type: cell-based; settings: 72 h; for GI50: read-out: Absolute GI50; for IC50: read-out: Absolute IC50
Method: as §1, §2, §3, §4, §5, §6, §7, §8

[1] = test system: GL261 cells, sub-cutaneous; assay: Re-challenge of long-term survivors with sub-cutaneous GL261 cells; assay type: in vivo, C57BL/6 mice; settings: long term survival (LTS) mice after Compound 121 oral therapy, not treated in re-challenge phase
Method: (§9) The anti-tumor activity of Compound 121, as a single agent, was studied in the GL261 murine model of human glioblastoma. Murine GL261 glioblastoma cells were injected intra-cranially into syngeneic, immune-competent hosts (C57BL/6). In order for oral therapeutics to be effective, it is required that the therapeutic be able to cross the blood-brain barrier in order to achieve sufficient levels in the brain to exert an anti-tumor effect. Survival was the major endpoint for the study. The mice either succumbed to the tumor or were euthanized based on severity of tumor-dependent morbidity. Mice that achieved long-term survival (>80 days) were re-challenged with a sub-cutaneous injection of GL261 cells to assess the development of a durable immune response to GL261. Mice that underwent the re-challenge phase were not treated with Compound 121.
Re-challenge phase: Mice surviving past 80 days were injected with GL261 cell subcutaneously on Day 93. A control group (naïve C57BL/6 mice, N=5) were also injected with GL261 cells subcutaneously. Tumor volumes were calculated from bidimensional caliper measurements every 3 to 4 days. Further, all mice were administered oral doses of a Bifidobacterium mixture on three separate occasions. The objective of the administration of Bifidobacterium was to transiently modify the intestinal microbiome as a means to influence the immune response to GL261. […]

[2] = Pharmacokinetic properties after IV and PO administration; assay type: in vivo
[3] = test system: GL261 glioblastoma cells injected intra-cranially; assay: GL261 murine model of glioblastoma (intra-cranial), survival; assay type: in vivo, C57BL/6 mice; settings: orally once per day at 1 mg/kg for 45 days
Method: as §9
GL261 cells (1×10^5 cells) were implanted into the brain of a C57BL/6 host using stereotactice injection. Compound 121 was dosed orally once per day at 1 mg/kg (N=10) for 45 days beginning 3 days post-tumor cell implantation. Compound Y was dosed orally once per day at 5 mg/kg (N=10) for 45 days beginning 3 days post-tumor implantation. A vehicle was administered to a control group of mice (N=10) per the same schedule.
Mice were monitored for signs of tumor dependent morbidity, including head tilt, hunching, ataxia, and limb weakness. Mice were euthanized when cumulative signs of high tumor burden were evident.

[4] = top conc. 10 μM Compound 121, 100 μM cisplatin
[5] = 72 h, top conc. 10 μM Compound 121, 100 μM cisplatin
[6] = Homo sapiens, top conc. 10 μM Compound 121, 100 μM cisplatin
[7] = Homo sapiens, read-out: Absolute IC50
[8] = in vivo, IV Administration (5 mg/kg)

SMILES: N.N.[Cl][Pt][Cl] [Cisplatin, reference compound]
- GI50 (JEG-3 cells): 5.5 µM
- IC50 (JEG-3 cells): 9.4 µM
- % inhibition at top conc. (JEG-3 cells; [4]): 99.90%
- GI50 (Molt-4 cells): 0.61 µM
- IC50 (Molt-4 cells): 0.71 µM
- % inhibition at top conc. (Molt-4 cells; [4]): 99.96%
- GI50 (MDA-MB-231 cells): 18.6 µM
- % inhibition at top conc. (MDA-MB-231 cells; [4]): 85.68%
- GI50 (HeLa cells): 0.3 µM
- % inhibition at top conc. (HeLa cells; [4]): 99.60%
- GI50 (AsPC-1 cells; 72 h): 2.73 µM
- IC50 (AsPC-1 cells; 72 h): 3.31 µM
- % inhibition at top conc. (AsPC-1 cells; [5]): 72.39%
- GI50 (KP4 cells; 72 h): 6.87 µM
- IC50 (KP4 cells; 72 h): 8.8 µM
- % inhibition at top conc. (KP4 cells; [5]): 98.30%
- GI50 (MX-1 cells; 72 h): 5.69 µM
- IC50 (MX-1 cells; 72 h): 7.12 µM
- % inhibition at top conc. (MX-1 cells; [5]): 98.97%
- GI50 (KYSE-150 cells): 6.26 µM
- IC50 (KYSE-150 cells): 8.14 µM
- % inhibition at top conc. (KYSE-150 cells; [4]): 91.28%

SMILES: Cc1cc(N2CCOC[C@@H]2C)ccc1-c1ccc(CC(=O)NCc2ccc(F)cc2)nc1 [Compound 121]
- GI50 (JEG-3 cells; Homo sapiens): 0.008 µM
- IC50 (JEG-3 cells; Homo sapiens): 0.009 µM
- inhibition at 10 µM (JEG-3 cells; [6]): 86.5%
- GI50 (Molt-4 cells; Homo sapiens): 0.013 µM
- IC50 (Molt-4 cells; Homo sapiens): 0.014 µM
- inhibition at 10 µM (Molt-4 cells; [6]): 99.6%
- GI50 (MDA-MB-231 cells; Homo sapiens): 0.02 µM
- IC50 (MDA-MB-231 cells; [7]): > 10 µM
- inhibition at 10 µM (MDA-MB-231 cells; [6]): 45.8%
- Tumor growth after sub-cutaneous re-challenge with GL261 cells [1]: Tumors failed to grow in both LTS mice
- GI50 (HeLa cells; Homo sapiens): 0.004 µM
- IC50 (HeLa cells; [7]): 0.004 µM
- inhibition at 10 µM (HeLa cells; [6]): 89.5%
- GI50 (AsPC-1 cells; Homo sapiens, ASPC1, 72 h): 0.012 µM
- IC50 (AsPC-1 cells; Homo sapiens, ASPC1, 72 h): > 10 µM
- inhibition at 10 µM (AsPC-1 cells; Homo sapiens, ASPC1, 72 h, top conc. 10 μM Compound 121, 100 μM cisplatin): 51.2%
- AUCIV (dose-normalized) ([2]; IV Administration (5 mg/kg)): 575 kg·ng·h/mL/mg
- t0.5 ([2]; IV Administration (5 mg/kg)): 0.959 h
- F (%) = 100 × AUCpo/AUCIV ([2]; PO 20 mg/kg vs IV 5 mg/kg): 34.8%
- AUCPO (dose-normalized) ([2]; PO Administration (20 mg/kg)): 199 kg·ng·h/mL/mg
- C0 [2, 8]: 2850 ng/mL
- clearance [2, 8]: 29 mL/min/kg
- Vd ([2]; in vivo, IV Administration (5 mg/kg), read-out: Vss): 2.24 L/kg
- Cmax ([2]; in vivo, PO Administration (20 mg/kg)): 2170 ng/mL
- Survival compared to vehicle control [3]: significanly extended survival
- Survival beyond 80 days (long term survival) ([3]; N=10): 2 of the 10
- GI50 (KP4 cells; Homo sapiens, KP-4, 72 h): 0.007 µM
- IC50 (KP4 cells; Homo sapiens, KP-4, 72 h): 0.008 µM
- inhibition at 10 µM (KP4 cells; Homo sapiens, KP-4, 72 h, top conc. 10 μM Compound 121, 100 μM cisplatin): 90.8%
- GI50 (MX-1 cells; Homo sapiens, MX1, 72 h): 0.011 µM
- IC50 (MX-1 cells; Homo sapiens, MX1, 72 h): 0.018 µM
- inhibition at 10 µM (MX-1 cells; Homo sapiens, MX1, 72 h, top conc. 10 μM Compound 121, 100 μM cisplatin): 66.8%
- GI50 (KYSE-150 cells; Homo sapiens): 0.005 µM
- IC50 (KYSE-150 cells; Homo sapiens): 0.006 µM
- inhibition at 10 µM (KYSE-150 cells; [6]): 80%
